Results taken from the supplement of paper PMC10307832.

Tests used:
Experiment in all cases: relative viability (nuclei count vs DMSO), 5 days (fraction); higher = more cells survive
Everolimus + Decitabine = compound: CO[C@H]1C[C@@H]2CC[C@@H](C)[C@@](O)(O2)C(=O)C(=O)N2CCCC[C@H]2C(=O)O[C@H]([C@H](C)C[C@@H]2CC[C@@H](OCCO)[C@H](OC)C2)CC(=O)[C@H](C)/C=C(\C)[C@@H](O)[C@@H](OC)C(=O)[C@H](C)C[C@H](C)/C=C/C=C/C=C/1C [Everolimus] + Nc1ncn([C@H]2C[C@H](O)[C@@H](CO)O2)c(=O)n1 [Decitabine] (partner 2 µM)
Method in brief: (§1)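 Nuclei were stained with Hoechst during a one-step fixation (final 0.05% Triton X-100, 1% formaldehyde, 1 ug/ml Hoechst) carried out 5 days after dosing, then counted on 4× images. The cells, lung cancer lines in 1536-well plates, had been dosed by pin tool the day after seeding with one drug alone or a fixed anchor-drug dose plus five library-drug doses (not always all listed) in √10 steps. Relative viability is the nuclei count in treated wells divided by that in vehicle wells, and each value is the median of duplicate plates.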

Everolimus + Crizotinib = compound: CO[C@H]1C[C@@H]2CC[C@@H](C)[C@@](O)(O2)C(=O)C(=O)N2CCCC[C@H]2C(=O)O[C@H]([C@H](C)C[C@@H]2CC[C@@H](OCCO)[C@H](OC)C2)CC(=O)[C@H](C)/C=C(\C)[C@@H](O)[C@@H](OC)C(=O)[C@H](C)C[C@H](C)/C=C/C=C/C=C/1C [Everolimus] + C[C@@H](Oc1cc(-c2cnn(C3CCNCC3)c2)cnc1N)c1c(Cl)ccc(F)c1Cl [Crizotinib] (partner 1 µM)
Method in brief: as §1

Everolimus + Phenformin = compound: CO[C@H]1C[C@@H]2CC[C@@H](C)[C@@](O)(O2)C(=O)C(=O)N2CCCC[C@H]2C(=O)O[C@H]([C@H](C)C[C@@H]2CC[C@@H](OCCO)[C@H](OC)C2)CC(=O)[C@H](C)/C=C(\C)[C@@H](O)[C@@H](OC)C(=O)[C@H](C)C[C@H](C)/C=C/C=C/C=C/1C [Everolimus] + N=C(N)NC(=N)NCCc1ccccc1 [Phenformin] (partner 250 µM)
Method in brief: as §1

Everolimus + Navitoclax = compound: CO[C@H]1C[C@@H]2CC[C@@H](C)[C@@](O)(O2)C(=O)C(=O)N2CCCC[C@H]2C(=O)O[C@H]([C@H](C)C[C@@H]2CC[C@@H](OCCO)[C@H](OC)C2)CC(=O)[C@H](C)/C=C(\C)[C@@H](O)[C@@H](OC)C(=O)[C@H](C)C[C@H](C)/C=C/C=C/C=C/1C [Everolimus] + CC1(C)CCC(c2ccc(Cl)cc2)=C(CN2CCN(c3ccc(C(=O)NS(=O)(=O)c4ccc(N[C@H](CCN5CCOCC5)CSc5ccccc5)c(S(=O)(=O)C(F)(F)F)c4)cc3)CC2)C1 [Navitoclax] (partner 0.5 µM)
Method in brief: as §1

Cell Line	relative viability (Everolimus + Decitabine; first compound 0.01 µM)	relative viability (Everolimus + Decitabine; first compound 0.03162 µM)	relative viability (Everolimus + Decitabine; first compound 0.1 µM)	relative viability (Everolimus + Decitabine; first compound 0.3162 µM)	relative viability (Everolimus + Decitabine; first compound 1 µM)	relative viability (Everolimus + Crizotinib; first compound 0.01 µM)	relative viability (Everolimus + Crizotinib; first compound 0.03162 µM)	relative viability (Everolimus + Crizotinib; first compound 0.1 µM)	relative viability (Everolimus + Crizotinib; first compound 0.3162 µM)	relative viability (Everolimus + Crizotinib; first compound 1 µM)	relative viability (Everolimus + Phenformin; first compound 0.01 µM)	relative viability (Everolimus + Phenformin; first compound 0.03162 µM)	relative viability (Everolimus + Phenformin; first compound 0.1 µM)	relative viability (Everolimus + Phenformin; first compound 0.3162 µM)	relative viability (Everolimus + Phenformin; first compound 1 µM)	relative viability (Everolimus + Navitoclax; first compound 0.01 µM)	relative viability (Everolimus + Navitoclax; first compound 0.03162 µM)	relative viability (Everolimus + Navitoclax; first compound 0.1 µM)	relative viability (Everolimus + Navitoclax; first compound 0.3162 µM)	relative viability (Everolimus + Navitoclax; first compound 1 µM)
HCC-366	0.301	0.226	0.257	0.291	0.212	0.433	0.441	0.526	0.295	0.372	0.59	0.613	0.601	0.528	0.582	0.859	0.823	0.871	0.91	0.511
HCC-827	0.282	0.234	0.303	0.319	0.287	0.947	0.831	0.852	0.998	0.839	0.434	0.404	0.416	0.396	0.403	1.02	1.07	0.99	1.04	0.987
HOP-62	0.223	0.278	0.195	0.251	0.321	0.934	0.58	0.556	0.583	0.637	0.583	0.579	0.495	0.513	0.535	0.997	0.875	0.862	0.786	0.948
LC-2-ad	0.846	0.779	0.888	0.819	0.726	0.542	0.48	0.384	0.449	0.417	0.54	0.502	0.54	0.516	0.491	0.339	0.245	0.284	0.245	0.236
LCLC-97TM1	0.197	0.205	0.184	0.208	0.218	0.406	0.28	0.485	0.291	0.216	0.46	0.513	0.483	0.353	0.437	0.417	0.388	0.255	0.217	0.239
LK-2	0.268	0.156	0.19	0.194	0.193	0.24		0.22	0.284	0.227	0.299		0.154	0.166	0.233	0.851	0.557	0.408	0.508	0.461
LOU-NH91	0.718	0.76	0.702	0.699	0.686	0.664	0.695	0.627	0.573	0.58	0.636	0.596	0.609	0.541	0.584	0.53	0.59	0.473	0.524	0.496
LU99A	0.537	0.514	0.43	0.485	0.566	0.415	0.413	0.35	0.451	0.351	0.665	0.662	0.605	0.503	0.587	0.409	0.503	0.406	0.412	0.421
LXF-289	0.358	0.359	0.306	0.38	0.411	0.885	0.978	0.904	0.88	0.888	0.526	0.541	0.507	0.574	0.512	0.99	1.04	0.958	0.96	0.957
NCI-H23	0.264	0.283	0.257	0.259	0.254	0.486	0.33	0.288	0.398	0.359	0.641	0.607	0.508	0.593	0.496	0.556	0.424	0.44	0.544	0.557
NCI-H322M	0.766	0.7	0.585	0.596	0.609	0.914	0.753	0.775	0.795	0.704	0.647	0.658	0.629	0.714	0.701	1.21	1.05	0.905	0.902	0.79
NCI-H441	0.257	0.243	0.194	0.261	0.29	0.881	0.65	0.606	0.766	0.723	0.798	0.605	0.585	0.772	0.666	0.658	0.577	0.79	0.73	0.482
NCI-H460	0.498	0.53	0.506	0.369	0.421	0.783	0.738	0.808	0.845	0.872	0.492	0.57	0.588	0.538	0.315	0.998	1.11	0.704	1.1	0.779
NCI-H520	0.273	0.281	0.26	0.287	0.294	0.478	0.398	0.426	0.354	0.353	0.242	0.255	0.242	0.207	0.244	0.537	0.454	0.421	0.535	0.445
NCI-H596	0.761	0.595	0.739	0.69	0.605	0.677	0.65	0.631	0.619	0.683	0.494	0.505	0.396	0.513	0.554	0.427	0.361	0.394	0.374	0.369
